In the NIST ThermoML archive (doi:10.1016/j.tca.2014.05.022):
Several values for one entry are separate records, joined by “and”; a condition that tells them apart may be missing. Equal entries are not always repeated. Numbers after ± are expanded uncertainties.

Details: DTA; for Normal melting temperature: Crystal

| Structure (SMILES) | Triple point temperature (Crystal 1) | Triple point temperature (Crystal 2) | Normal melting temperature | Triple point temperature (Crystal 3) |
| --- | --- | --- | --- | --- |
| CCCCCCCCCCCCCCCCO [1-hexadecanol] | 323.3 ± 0.87 K and 323 ± 0.9 K | 322.3 ± 0.9 K and 322.2 ± 0.9 K | 50 ± 0.5 °C | – |
| CCCCCCCCO [octan-1-ol] | 258.7 ± 0.9 K and 258.3 ± 0.9 K | 255 ± 0.5 K and 256 ± 0.9 K | -14.4 ± 0.5 °C | – |
| CCCCCCCCCCCCCCCCCCO [1-octadecanol] | 331.6 ± 0.9 K | 331 ± 0.9 K and 330.6 ± 0.9 K | 58.5 ± 0.5 °C | – |
| CCCCCCCCCCO [decan-1-ol] | 280.6 ± 0.9 K and 280.8 ± 0.9 K | 280.2 ± 0.9 K and 279.9 ± 0.9 K | 7.5 ± 0.5 °C | 276.2 ± 0.9 K and 277.5 ± 0.9 K |

Next, values leading:

| Triple point temperature (Crystal 1) | Triple point temperature (Crystal 2) | Normal melting temperature | Triple point temperature (Crystal 3) | Structure (SMILES) |
| --- | --- | --- | --- | --- |
| 297.8 ± 0.9 K and 297.4 ± 0.9 K | 296.4 ± 0.9 K | 24.7 ± 0.5 °C and 24.2 ± 0.5 °C | – | CCCCCCCCCCCCO [dodecan-1-ol] |
| 311.2 ± 0.9 K and 311.4 ± 0.9 K | 310.2 ± 0.9 K and 310.4 ± 0.9 K | 38.2 ± 0.5 °C | – | CCCCCCCCCCCCCCO [1-tetradecanol] |
